This passage reports EC50, IC50 and AC50 results from ChEMBL document CHEMBL1201862, “PubChem BioAssay data set” (2004).

The term EC50 denotes the concentration needed to bring the measured effect to its halfway point. In general, IC50 refers to the concentration needed to halve the response being measured. What is called AC50 is the concentration at which the activity in the assay is half-maximal.

Assay [1] concerns the target Voltage-dependent T-type calcium channel subunit alpha-1H (Homo sapiens, UniProt O95180). The assay can be described thus: Cav3.2 T-type channel inhibitors, cell-based, synthetic library set 1, calcium flux (AID 493022). The format is functional. On the technique in general: Calcium assays in cells follow changes in intracellular calcium, usually with a dye or a luminescent sensor.

Assay [2] concerns the target Delta-type opioid receptor (Homo sapiens, UniProt P41143). Kind of assay: SAR Analysis of Antagonists of the DOR Receptor using an Image-Based Assay - Set 3. [Related pubchem assays (depositor defined):AID1777, AID1785]. The format is functional.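 Also: U2OS cells expressing DOR1 and beta-arrestin GFP stimulated with 100 nM SNC80; imaging of GFP-tagged beta-arrestin moving into spots after receptor activation.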
For assay [3], the target named is T1, Kappa-type opioid receptor (Homo sapiens, UniProt P41145). Kind of assay: SAR analysis of small molecule antagonists of the kappa opioid receptor via a luminescent beta-arrestin assay - Set 4. [Related pubchem assays (depositor defined):AID1777, AID1778, AID1785, AID1786, AID1966, AID2133, AID2136, AID2285]. The format is functional.
T1 sequence (P41145 whole entry): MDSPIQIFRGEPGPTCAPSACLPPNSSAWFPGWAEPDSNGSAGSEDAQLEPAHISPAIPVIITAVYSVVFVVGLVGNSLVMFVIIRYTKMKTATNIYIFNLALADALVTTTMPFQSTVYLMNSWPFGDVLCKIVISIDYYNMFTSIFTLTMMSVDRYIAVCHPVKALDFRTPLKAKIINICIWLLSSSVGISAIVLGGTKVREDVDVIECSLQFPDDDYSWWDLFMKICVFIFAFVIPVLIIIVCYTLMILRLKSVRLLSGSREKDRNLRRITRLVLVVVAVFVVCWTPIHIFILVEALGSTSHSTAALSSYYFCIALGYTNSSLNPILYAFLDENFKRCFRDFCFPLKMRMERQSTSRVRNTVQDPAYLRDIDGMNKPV
Assay [4] addresses T1, Kappa-type opioid receptor. The assay can be described thus: SAR analysis of Antagonists of the Kappa Opioid Receptor (KOR) using an Image-Based Assay - Set 4. [Related pubchem assays (depositor defined):AID1777, AID1785]. The format is functional.
Another assay addresses Mu-type opioid receptor (Homo sapiens, UniProt P35372). Kind of assay: SAR Analysis of Antagonists of the MOR Receptor using an Image-Based Assay - Set 3. [Related pubchem assays (depositor defined):AID1777, AID1785, AID1786, AID1966, AID2133, AID2136, AID2284, AID2285, AID2420]. It counts as functional.
Assay [5] deals with Heat shock protein HSP 90-alpha (Homo sapiens, UniProt P07900). The format is functional, organism-based.
The nature of assay [6]: Luminescence Cell-Based Dose Retest to Confirm Inhibitors of Cancer Stem Cells. [Related pubchem assays (depositor defined):AID2717, AID2721]. It counts as functional. Particulars: Homo sapiens.
In the next assay the target is Beta-galactosidase (Escherichia coli, UniProt Q8VNN2). Kind of assay: beta-galactosidase enzyme inhibitors and activators, dose response, artefact control for CCR6 antagonist project, biochemical, E. coli enzyme, set 3 (AID 504712). It counts as functional.
Sequence of Beta-galactosidase (Q8VNN2 whole entry, the tested form may be a part): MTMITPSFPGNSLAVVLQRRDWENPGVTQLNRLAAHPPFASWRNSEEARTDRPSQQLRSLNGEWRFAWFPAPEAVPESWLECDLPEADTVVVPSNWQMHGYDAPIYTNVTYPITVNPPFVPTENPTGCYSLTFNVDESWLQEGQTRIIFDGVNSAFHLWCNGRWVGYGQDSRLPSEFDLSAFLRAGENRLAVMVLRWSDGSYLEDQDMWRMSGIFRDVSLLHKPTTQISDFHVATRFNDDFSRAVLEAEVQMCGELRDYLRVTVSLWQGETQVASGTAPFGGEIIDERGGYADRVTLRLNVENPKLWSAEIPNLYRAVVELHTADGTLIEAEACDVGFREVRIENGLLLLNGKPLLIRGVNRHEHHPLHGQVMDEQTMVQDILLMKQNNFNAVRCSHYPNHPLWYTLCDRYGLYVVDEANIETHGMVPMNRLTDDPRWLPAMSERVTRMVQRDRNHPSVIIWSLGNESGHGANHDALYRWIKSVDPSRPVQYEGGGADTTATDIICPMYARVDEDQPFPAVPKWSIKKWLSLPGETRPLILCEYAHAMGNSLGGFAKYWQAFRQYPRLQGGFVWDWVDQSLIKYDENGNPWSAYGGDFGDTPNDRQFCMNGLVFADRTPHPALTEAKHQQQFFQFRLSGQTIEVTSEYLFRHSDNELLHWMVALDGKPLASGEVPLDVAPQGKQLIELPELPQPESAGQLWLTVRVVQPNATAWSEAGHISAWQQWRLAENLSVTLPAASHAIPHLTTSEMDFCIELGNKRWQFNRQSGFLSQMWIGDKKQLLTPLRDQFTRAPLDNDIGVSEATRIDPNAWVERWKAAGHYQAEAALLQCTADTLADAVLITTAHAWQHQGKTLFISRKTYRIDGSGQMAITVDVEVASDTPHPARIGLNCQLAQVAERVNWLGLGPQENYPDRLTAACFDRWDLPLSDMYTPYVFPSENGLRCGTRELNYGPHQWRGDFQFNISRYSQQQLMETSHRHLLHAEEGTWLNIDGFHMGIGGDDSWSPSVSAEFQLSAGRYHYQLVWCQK
In assay [7] the target is NACHT, LRR and PYD domains-containing protein 1 (Homo sapiens, UniProt Q9C000). The assay can be described thus: NALP1 inhibitors in yeast, dose response, luminescent (AID 488860). The format is functional.
A further assay relates to Saccharomyces cerevisiae. The assay can be described thus: NALP1 inhibitor project selectivity study, Caspase-1/ASC signal blockade IC50 in S. cerevisiae (AID 488863). The format is functional, organism-based.
The target in the next assay is Hexokinase (Trypanosoma brucei, UniProt Q38C41). The assay can be described thus: Confirmation assay for inhibitors of Trypanosoma brucei hexokinase 1-Analogue-first series. [Related pubchem assays (depositor defined):AID1430, AID1632, AID2516, AID2560, AID2579, AID2600, AID449725, AID492951]. It counts as functional.
Sequence of Hexokinase (Q38C41 whole entry): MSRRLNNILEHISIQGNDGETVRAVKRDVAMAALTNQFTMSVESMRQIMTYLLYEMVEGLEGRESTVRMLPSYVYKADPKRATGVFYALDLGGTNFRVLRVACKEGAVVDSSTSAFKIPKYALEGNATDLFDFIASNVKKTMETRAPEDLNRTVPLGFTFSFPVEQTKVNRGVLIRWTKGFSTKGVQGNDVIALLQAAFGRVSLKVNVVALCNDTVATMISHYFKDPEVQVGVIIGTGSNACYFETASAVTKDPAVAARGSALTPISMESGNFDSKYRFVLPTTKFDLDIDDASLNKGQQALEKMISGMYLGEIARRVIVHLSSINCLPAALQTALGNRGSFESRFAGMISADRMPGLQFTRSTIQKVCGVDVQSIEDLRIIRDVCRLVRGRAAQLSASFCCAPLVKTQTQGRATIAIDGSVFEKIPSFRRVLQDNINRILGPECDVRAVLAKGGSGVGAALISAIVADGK
Assay [8] concerns the target Alkaline phosphatase, placental type (Homo sapiens, UniProt P05187). Kind of assay: PLAP enzyme inhibitors, confirmation, biochemical, luminescence (AID 1512). The format is functional.
Assay [9] concerns the target T2, Mannose-6-phosphate isomerase (Homo sapiens, UniProt P34949).
T2 sequence (P34949 whole entry): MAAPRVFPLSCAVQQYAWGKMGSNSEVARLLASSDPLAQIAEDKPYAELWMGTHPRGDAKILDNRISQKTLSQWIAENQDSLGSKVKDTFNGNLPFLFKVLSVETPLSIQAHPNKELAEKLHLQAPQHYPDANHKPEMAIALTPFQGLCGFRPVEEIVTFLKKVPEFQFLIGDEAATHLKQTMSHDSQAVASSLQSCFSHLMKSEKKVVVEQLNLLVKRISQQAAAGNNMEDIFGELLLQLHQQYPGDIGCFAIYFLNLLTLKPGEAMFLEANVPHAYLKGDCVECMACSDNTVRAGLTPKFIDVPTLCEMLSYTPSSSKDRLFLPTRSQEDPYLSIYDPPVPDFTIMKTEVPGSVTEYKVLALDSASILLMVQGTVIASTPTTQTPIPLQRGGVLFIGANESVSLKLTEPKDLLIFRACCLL
Kind of assay: Confirmation of compounds inhibiting phosphomannose isomerase (PMI) via a fluorescence intensity assay using a high concentration of mannose 6-phosphate. [Related pubchem assays (depositor defined):AID1209, AID1220, AID1545, AID1553, AID1620].

Assay [10] addresses T2, Mannose-6-phosphate isomerase. The assay can be described thus: PMI enzyme inhibitors, confirmation, biochemical, fluorescence intensity (AID 1535).
Assay [11] addresses G-protein coupled receptor 55 (Homo sapiens, UniProt Q9Y2T6). Kind of assay: GPR55 agonists via beta-arrestin recruitment, primary screen, imaging, U2OS cells, beta-arrestin-GFP redistribution (AID 1961). It counts as functional. Background: Recruitment of arrestin is a read-out of receptor activation apart from second messengers.
Another assay has as its system MDA-MB-435. The assay can be described thus: cells. It counts as functional, cell-based. Particulars: Homo sapiens.
A further assay can be described thus: cells. The format is functional, cell-based. Particulars: PPC-1.
The nature of assay [12]: Luminescence Cell-Based Dose Response HTS to Identify Activators of Luciferase Translation or Activity in H4 […] Cells. [Related pubchem assays: 1829 (Project Summary), 1814 (Primary HTS)]. The format is functional.
The target in assay [13] is NACHT, LRR and PYD domains-containing protein 3 (Homo sapiens, UniProt Q96P20). The assay can be described thus: NALP3 inhibitors in yeast, dose response, luminescent (AID 488799). It counts as functional.
The nature of assay [14]: Luminescence Cell-Based Dose Confirmation to Identify Activators of 5'UTR Stem-Loop Driven Alpha-Synuclein mRNA Translation in H4 Neuroglioblastoma Cells. [Related pubchem assays: 1829 (Project Summary), 1814 (Primary HTS)]. It counts as functional.
Assay [15] in a line: Luminescence Cell-Based Dose Response to Identify Activators of 5'UTR Stem-Loop Driven Prion Protein mRNA Translation in H4-C Neuroglioblastoma Cells. [Related pubchem assays: 1829 (Project Summary), 1814 (Primary HTS)]. It counts as functional.
Assay [16] can be described thus: Luminescence Cell-Based Dose Response to Identify Activators of Luciferase Translation or Activity in H4-C Neuroglioblastoma Cells. [Related pubchem assays: 1829 (Project Summary), 1814 (Primary HTS)]. The format is functional.
In another assay the test system is H4. The assay can be described thus: Luminescence Cell-Based Dose Response HTS to Identify Activators of 5'UTR Stem-Loop Driven Prion Protein mRNA Translation in H4 Neuroglioblastoma Cells. [Related pubchem assays: 1829 (Project Summary), 1814 (Primary HTS)]. The format is functional. The settings on record: Homo sapiens.
For another assay, the target named is Phosphomannomutase 2 (Homo sapiens, UniProt O15305). Kind of assay: Counter screen SAR assay for PMM2 inhibitors via a fluorescence intensity assay. [Related pubchem assays (depositor defined):AID1545, AID1574]. A general note: A counterscreen serves to expose hits that act by an unwanted route or on another target.
Sequence of Phosphomannomutase 2 (O15305 whole entry): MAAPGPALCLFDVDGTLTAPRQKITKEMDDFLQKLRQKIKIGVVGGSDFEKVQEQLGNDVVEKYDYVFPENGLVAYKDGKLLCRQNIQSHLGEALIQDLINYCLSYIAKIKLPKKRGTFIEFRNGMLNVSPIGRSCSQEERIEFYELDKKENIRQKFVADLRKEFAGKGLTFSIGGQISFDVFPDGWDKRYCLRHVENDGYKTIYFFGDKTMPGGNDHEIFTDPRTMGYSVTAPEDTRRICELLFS
For another assay, the target named is CAAX prenyl protease 2 (Homo sapiens, UniProt Q9Y256). The assay can be described thus: human Rce1 protease inhibitors, dose response, biochemical, yeast membranes, quenched-peptide fluorescence, cherry-pick (AID 588849).
Sequence of CAAX prenyl protease 2 (Q9Y256 whole entry): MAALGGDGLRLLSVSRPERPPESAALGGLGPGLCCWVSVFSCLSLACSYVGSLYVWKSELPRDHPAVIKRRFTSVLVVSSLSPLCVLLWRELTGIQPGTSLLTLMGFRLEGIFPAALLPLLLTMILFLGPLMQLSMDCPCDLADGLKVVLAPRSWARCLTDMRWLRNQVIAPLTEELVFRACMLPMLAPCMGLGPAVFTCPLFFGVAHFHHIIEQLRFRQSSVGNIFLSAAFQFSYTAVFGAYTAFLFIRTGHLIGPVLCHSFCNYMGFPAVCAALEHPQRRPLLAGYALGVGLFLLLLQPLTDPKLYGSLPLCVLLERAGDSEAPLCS
The target in the next assay is Trypsin (Sus scrofa, UniProt P00761). The assay can be described thus: porcine trypsin inhibitors, dose response, selectivity assay for Rce1 protease inhibitor project, biochemical, quenched peptide fluorescence, cherry-pick (AID 488789).
Sequence of Trypsin (P00761 whole entry): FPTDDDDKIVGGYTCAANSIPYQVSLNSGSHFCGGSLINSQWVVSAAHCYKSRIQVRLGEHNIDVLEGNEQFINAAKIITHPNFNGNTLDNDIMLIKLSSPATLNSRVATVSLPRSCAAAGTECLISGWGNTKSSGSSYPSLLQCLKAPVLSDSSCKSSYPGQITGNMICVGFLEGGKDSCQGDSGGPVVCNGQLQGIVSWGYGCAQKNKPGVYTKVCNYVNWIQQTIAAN
Assay [17] can be described thus: Luminescence Cell-Based Dose Response HTS to Identify Activators of 5'UTR Stem-Loop Driven Prion Protein mRNA Translation in H4-C Neuroglioblastoma Cells. [Related pubchem assays: 1829 (Project Summary), 1814 (Primary HTS)]. It counts as functional.
Assay [18] is described as follows: Luminescence Cell-Based Dose Retest to Confirm Activators of 5'UTR Stem-Loop Driven Alpha-Synuclein mRNA Translation in H4 Neuroglioblastoma Cells. [Related pubchem assays (depositor defined):AID1813, AID1829]. It counts as functional.
Assay [19] in a line: Luminescence Cell-Based Dose Response HTS to Identify Activators of Luciferase Translation or Activity in H4-C Neuroglioblastoma Cells. [Related pubchem assays: 1829 (Project Summary), 1814 (Primary HTS)]. The format is functional.
Assay [20] in a line: Luminescence Cell-Based Dose Confirmation HTS to Identify Activators of 5'UTR Stem-Loop Driven Alpha-Synuclein mRNA Translation in H4 Neuroglioblastoma Cells. [Related pubchem assays: 1829 (Project Summary), 1814 (Primary HTS)]. It counts as functional.
Assay [21] can be described thus: inhibition of K1F phage lysis, E. coli UTI89, bacterial capsule biogenesis inhibitors, alamar blue (AID 488966). It counts as functional.

Molecules are shown by their SMILES. Active and inactive are the calls of the source.

Sequence of G-protein coupled receptor 55 (Q9Y2T6 whole entry): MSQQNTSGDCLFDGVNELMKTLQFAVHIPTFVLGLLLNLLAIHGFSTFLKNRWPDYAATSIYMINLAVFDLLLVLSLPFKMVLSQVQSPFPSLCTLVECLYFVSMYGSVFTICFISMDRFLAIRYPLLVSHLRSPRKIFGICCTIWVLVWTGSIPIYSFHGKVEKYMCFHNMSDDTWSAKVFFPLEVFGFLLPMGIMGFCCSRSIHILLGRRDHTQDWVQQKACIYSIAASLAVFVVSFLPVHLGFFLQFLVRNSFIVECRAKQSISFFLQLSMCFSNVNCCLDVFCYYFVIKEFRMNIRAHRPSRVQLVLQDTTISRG
Sequence of Delta-type opioid receptor (P41143 whole entry): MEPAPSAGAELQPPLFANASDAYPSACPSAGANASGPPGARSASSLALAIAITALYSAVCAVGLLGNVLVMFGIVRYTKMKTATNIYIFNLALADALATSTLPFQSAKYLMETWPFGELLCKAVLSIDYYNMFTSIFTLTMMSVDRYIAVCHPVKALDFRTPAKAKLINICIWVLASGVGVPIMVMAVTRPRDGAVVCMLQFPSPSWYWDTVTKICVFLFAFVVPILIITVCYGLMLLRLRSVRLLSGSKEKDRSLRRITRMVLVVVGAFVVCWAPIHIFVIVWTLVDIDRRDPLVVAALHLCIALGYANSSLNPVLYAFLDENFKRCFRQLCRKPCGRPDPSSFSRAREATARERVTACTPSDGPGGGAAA
Sequence of Alkaline phosphatase, placental type (P05187 whole entry): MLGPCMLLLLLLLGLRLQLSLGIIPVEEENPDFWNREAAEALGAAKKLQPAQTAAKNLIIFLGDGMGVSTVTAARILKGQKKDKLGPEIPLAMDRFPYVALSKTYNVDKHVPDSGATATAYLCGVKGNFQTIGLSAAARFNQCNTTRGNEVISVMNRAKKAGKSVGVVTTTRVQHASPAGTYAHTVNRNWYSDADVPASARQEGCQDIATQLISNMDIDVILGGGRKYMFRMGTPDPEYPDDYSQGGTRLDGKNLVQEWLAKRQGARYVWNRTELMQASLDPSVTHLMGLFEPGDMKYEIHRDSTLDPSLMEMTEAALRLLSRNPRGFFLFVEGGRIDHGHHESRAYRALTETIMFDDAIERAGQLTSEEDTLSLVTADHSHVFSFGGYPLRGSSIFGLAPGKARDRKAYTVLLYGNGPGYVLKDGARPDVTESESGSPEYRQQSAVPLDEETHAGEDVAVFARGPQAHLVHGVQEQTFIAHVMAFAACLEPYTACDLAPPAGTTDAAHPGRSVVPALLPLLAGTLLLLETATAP
Sequence of Mu-type opioid receptor (P35372 whole entry): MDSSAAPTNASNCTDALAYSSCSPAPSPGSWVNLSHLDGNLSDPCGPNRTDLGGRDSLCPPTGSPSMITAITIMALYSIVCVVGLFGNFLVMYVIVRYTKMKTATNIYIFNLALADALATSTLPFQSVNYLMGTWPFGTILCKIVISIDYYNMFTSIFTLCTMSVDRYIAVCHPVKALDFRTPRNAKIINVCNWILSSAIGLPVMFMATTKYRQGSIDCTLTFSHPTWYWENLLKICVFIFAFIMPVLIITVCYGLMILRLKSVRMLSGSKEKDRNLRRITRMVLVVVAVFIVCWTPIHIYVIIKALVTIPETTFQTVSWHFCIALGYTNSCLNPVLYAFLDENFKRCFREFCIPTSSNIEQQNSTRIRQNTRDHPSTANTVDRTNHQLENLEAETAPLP

For `Cc1ccc(-c2nnc(NC(=O)COc3ccc(F)cc3Cl)o2)cc1C`, in [1], the EC50 was 1.1 µM (active).
As for `Cc1ccc(S(=O)(=O)NCc2ccc(C(=O)NC3CCN(Cc4ccccc4)CC3)cc2)cc1`, the IC50 is > 32 µM (inactive) in assay [2], > 20 µM (inactive) in [3], > 32 µM (inactive) in assay [4] and > 32 µM (inactive) at Mu-type opioid receptor.
As for `Cc1cc(N2C(=O)C=CC2=O)c([N+](=O)[O-])cc1C`, the AC50 is 1.07 µM (active) in assay [5] and 4.18 µM (active) in assay [6]. Besides, the IC50 at Beta-galactosidase is > 66.6 µM (inactive); in assay [7] it was 17.7 µM (active); in the assay with Saccharomyces cerevisiae it was 23.9 µM (active).
Turning to `O=c1c2cc(N3CCOCC3)ccc2sn1-c1ccccc1`, the IC50 on Hexokinase was 4.46 µM (active).
In the case of `CCN1C(=O)C2(NNc3ccccc3O2)c2ccccc21` (stereo not drawn), the IC50 in assay [8], in assay [9] and in assay [10] was > 100 µM (inactive) throughout.
Take `CCCc1ccc2oc(C(=O)N(Cc3ccncc3)CC3CCCO3)c(C)c2c1` (stereo not drawn): the EC50 in [11] was 11.2 µM (inactive).
Consider `CSc1nc(-c2ccccc2)nc(-c2ccccc2)n1`, for which the IC50 in the assay with MDA-MB-435 and in “cells” was > 10 µM (inactive) each time.
Consider `Nc1ccc(Oc2cc(N)cc(Oc3ccccc3)c2)cc1`, for which the EC50 in assay [12] is < 0.1 µM (active); in [14], 1.22 µM (active); in assay [15], 2.5 µM (active); in [16] it was > 12 µM (not active); with H4, 20.4 µM (active). For the same compound, the IC50 in [13] was 4.74 µM (active).
Turning to `COc1ccc(C/N=c2\ssnc2Cl)cc1`, the figures for the IC50 (at Phosphomannomutase 2; in [10]) were > 100 µM (inactive) and 15.5 µM (active), respectively.
Consider `Cc1cc(NC(=O)COC(=O)c2nccnc2N)n(-c2ccccc2)n1`, for which the AC50 on CAAX prenyl protease 2 is 1.84 µM (active); on Trypsin, 25.9 µM (active).
As for `COc1cccc(Nc2nnc(SCc3nc4ccccc4s3)s2)c1`, the EC50 in assay [12] was 46.8 µM (active); in assay [17], 4.9 µM (active); in assay [18], 1.31 µM (active); in assay [19], 2.15 µM (active); in assay [20], 27.4 µM (active).
For the compound `COc1cc(/C=C/C(=O)NC(=O)c2ccccc2O)ccc1OC(C)=O`, the IC50 in assay [21] is > 150 µM (active).
